{
  "source": "PubChem BioAssay AID1918948",
  "about": "(Molecular Pharmacology Branch, DTP, NCI, 2023)",
  "system": "K-562 leukemia growth, % test/control",
  "assay": "Anticancer human tumor K-562 cell line growth inhibition;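 also: spheroids exposed to compounds for 7 days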;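 as to viability, T/C: 100% = DMSO vehicle wells and lower values mean fewer viable cells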",
  "conditions": "spheroids with HUVEC and MSC; for viability, T/C: stronger effect = lower value",
  "method_in_brief": "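Multicellular complex spheroids of tumor cells with human endothelial cells (HUVEC) and mesenchymal stem cells; the LSD1 inhibitor iadademstat was combined with standard-of-care or investigational agents. Top concentration at or near clinical Cmax, half-log dilutions; final DMSO ≤0.25%.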",
  "note": "pIC50: −log10 of the molar value. “And” between values parts separate entries of the source, which are not always exact repeats. Equal entries are not always repeated.",
  "data": [
    {"smiles": "CC[C@@]1(O)C(=O)OCc2c1cc1n(c2=O)Cc2cc3c(CN(C)C)c(O)ccc3nc2-1", "values": [
      {"measurement": "viability, T/C", "setting": "compound 0.000316 µM", "result": "98.4% and 100%"},
      {"measurement": "viability, T/C", "setting": "compound 0.001 µM", "result": "71.1% and 99.8%"},
      {"measurement": "viability, T/C", "setting": "compound 0.00316 µM", "result": "34.6% and 58.8%"},
      {"measurement": "viability, T/C", "setting": "compound 0.01 µM", "result": "32.6% and 50.7%"},
      {"measurement": "viability, T/C", "setting": "compound 0.0316 µM", "result": "20.8% and 24.8%"},
      {"measurement": "viability, T/C", "setting": "compound 0.1 µM", "result": 11.2, "unit": "%"},
      {"measurement": "pIC50", "setting": "curve of compound", "result": "8.65 and 8.10"}
    ]},
    {"smiles": "COc1ccc([C@@H](O)c2cc(-c3ncnc4cc(N5CCOCC5)ccc34)c(F)cc2Cl)nn1", "note": "+ NC1CC1c1ccc(-c2cccc(O)c2)cc1", "values": [
      {"measurement": "pIC50", "setting": "curve of first compound, second compound 0.1 µM", "result": 5.10},
      {"measurement": "pIC50", "setting": "curve of first compound, second compound 0.316 µM", "result": 5.12},
      {"measurement": "pIC50", "setting": "curve of first compound, second compound 1 µM", "result": 5.19},
      {"measurement": "pIC50", "setting": "curve of first compound, second compound 3.16 µM", "result": 5.32},
      {"measurement": "pIC50", "setting": "curve of first compound, second compound 10 µM", "result": 5.94},
      {"measurement": "viability, T/C", "setting": "second compound 0.1 µM, first compound 0.0316 µM", "result": 111, "unit": "%"},
      {"measurement": "viability, T/C", "setting": "second compound 0.1 µM, first compound 0.1 µM", "result": 107, "unit": "%"},
      {"measurement": "viability, T/C", "setting": "second compound 0.1 µM, first compound 0.316 µM", "result": 106, "unit": "%"},
      {"measurement": "viability, T/C", "setting": "second compound 0.1 µM, first compound 1 µM", "result": 106, "unit": "%"},
      {"measurement": "viability, T/C", "setting": "second compound 0.1 µM, first compound 3.16 µM", "result": 93.1, "unit": "%"},
      {"measurement": "viability, T/C", "setting": "second compound 0.1 µM, first compound 10 µM", "result": 38.8, "unit": "%"},
      {"measurement": "viability, T/C", "setting": "second compound 0.316 µM, first compound 0.0316 µM", "result": 104, "unit": "%"},
      {"measurement": "viability, T/C", "setting": "second compound 0.316 µM, first compound 0.1 µM", "result": 107, "unit": "%"},
      {"measurement": "viability, T/C", "setting": "second compound 0.316 µM, first compound 0.316 µM", "result": 101, "unit": "%"},
      {"measurement": "viability, T/C", "setting": "second compound 0.316 µM, first compound 1 µM", "result": 98.6, "unit": "%"},
      {"measurement": "viability, T/C", "setting": "second compound 0.316 µM, first compound 3.16 µM", "result": 85.4, "unit": "%"},
      {"measurement": "viability, T/C", "setting": "second compound 0.316 µM, first compound 10 µM", "result": 38.2, "unit": "%"},
      {"measurement": "viability, T/C", "setting": "second compound 1 µM, first compound 0.0316 µM", "result": 99.1, "unit": "%"},
      {"measurement": "viability, T/C", "setting": "second compound 1 µM, first compound 0.1 µM", "result": 98.8, "unit": "%"},
      {"measurement": "viability, T/C", "setting": "second compound 1 µM, first compound 0.316 µM", "result": 99.5, "unit": "%"},
      {"measurement": "viability, T/C", "setting": "second compound 1 µM, first compound 1 µM", "result": 98.3, "unit": "%"},
      {"measurement": "viability, T/C", "setting": "second compound 1 µM, first compound 3.16 µM", "result": 77, "unit": "%"},
      {"measurement": "viability, T/C", "setting": "second compound 1 µM, first compound 10 µM", "result": 33.8, "unit": "%"},
      {"measurement": "viability, T/C", "setting": "second compound 3.16 µM, first compound 0.0316 µM", "result": 103, "unit": "%"},
      {"measurement": "viability, T/C", "setting": "second compound 3.16 µM, first compound 0.1 µM", "result": 99.6, "unit": "%"},
      {"measurement": "viability, T/C", "setting": "second compound 3.16 µM, first compound 0.316 µM", "result": 94.2, "unit": "%"},
      {"measurement": "viability, T/C", "setting": "second compound 3.16 µM, first compound 1 µM", "result": 83.5, "unit": "%"},
      {"measurement": "viability, T/C", "setting": "second compound 3.16 µM, first compound 3.16 µM", "result": 59.7, "unit": "%"},
      {"measurement": "viability, T/C", "setting": "second compound 3.16 µM, first compound 10 µM", "result": 32.7, "unit": "%"},
      {"measurement": "viability, T/C", "setting": "second compound 10 µM, first compound 0.0316 µM", "result": 96.6, "unit": "%"},
      {"measurement": "viability, T/C", "setting": "second compound 10 µM, first compound 0.1 µM", "result": 96.9, "unit": "%"},
      {"measurement": "viability, T/C", "setting": "second compound 10 µM, first compound 0.316 µM", "result": 66.7, "unit": "%"},
      {"measurement": "viability, T/C", "setting": "second compound 10 µM, first compound 1 µM", "result": 52.9, "unit": "%"},
      {"measurement": "viability, T/C", "setting": "second compound 10 µM, first compound 3.16 µM", "result": 38.9, "unit": "%"},
      {"measurement": "viability, T/C", "setting": "second compound 10 µM, first compound 10 µM", "result": 24.6, "unit": "%"}
    ]},
    {"smiles": "COc1ccc([C@@H](O)c2cc(-c3ncnc4cc(N5CCOCC5)ccc34)c(F)cc2Cl)nn1", "values": [
      {"measurement": "viability, T/C", "setting": "compound 0.0316 µM", "result": "100% and 102%"},
      {"measurement": "viability, T/C", "setting": "compound 0.1 µM", "result": "104% and 98.7%"},
      {"measurement": "viability, T/C", "setting": "compound 0.316 µM", "result": "97% and 95.4%"},
      {"measurement": "viability, T/C", "setting": "compound 1 µM", "result": "96.4% and 97%"},
      {"measurement": "viability, T/C", "setting": "compound 3.16 µM", "result": "104% and 99.9%"},
      {"measurement": "viability, T/C", "setting": "compound 10 µM", "result": "40% and 38.6%"},
      {"measurement": "pIC50", "setting": "curve of compound", "result": "5.08 and 5.10"}
    ]}
  ]
}
